Assays:
Format in all cases: cell-based
[1] = test system: U937-PKR+ cells; test: Interferon induction in U937-PKR+ cells (IFN assay of culture supernatants)
Method: (§1) FIG. 2. Interferon induction in U937-PKR+ cells and control U937-neo cells. U937-PKR+ cells and U937-neo cells (0.5×10^6/ml) were cultured in RPMI 1640 medium, supplemented with 5% fetal bovine serum. The cells were pretreated (“primed”) with or without 10 nM PMA for 20 hrs followed by induction with 10 μg/ml poly r(I):poly r(C) or with 0.1 TCID50/cell EMCV for 20 hrs. Twenty-four hours after induction, culture supernatants were collected and assayed for IFN-α. The open bars indicate U937-neo cells, the hatched bars indicate U937-PKR+ cells. The experimental groups indicate different treatments: 1-no treatment; 2-poly r(I):poly r(C) induction alone; 3-EMCV induction alone; 4-PMA priming alone; 5-PMA priming and poly r(I):poly r(C) induction; 6-PMA priming and EMCV induction.
(§2) The levels of IFN-α in the preparations can be determined by titrating for antiviral activity on L929 (murine fibroblast) cells against National Institute of Allergy and Infectious Diseases reference standard G-023-901-527 (Lau et al. J. Clin. Invest. 82:1415-1421 1988). In this technique, 5×10^4 L929 cells are seeded into each well of 96-well microtiter plates and then incubated with two-fold serial dilutions of culture supernatants for 16 hr. The cells are subsequently challenged with EMCV or Sendai virus (0.1 or 0.01 TCID per cell). Virus-induced cytopathic effects were assessed by microscopic examination and by staining cells with 0.1% crystal violet in 5% ethanol solutions. The IFN titer is defined as the reciprocal of the highest dilution of culture supernatants capable of protecting 50% of the cells from viral-induced cytopathic effects.
U937-PKR+ cells and U937-neo cells were cultured in RPMI 1640 medium, supplemented with fetal bovine serum. The cells were pretreated with or without phorbol myristate acetate (PMA) (10 nM) for 20 hr and with or without subsequent stimulation by poly r(I):r(C), 10 ug/ml, for 20 hr. Twenty-four hr after the stimulation with poly r(I):r(C), culture supernatants were collected for IFN assays.

[2] = test system: U937-neo cells; test: Interferon induction in control U937-neo cells (IFN assay of culture supernatants); details: inducer 10 μg/ml for 20 hr, either with or without 10 nM PMA priming
Method: as §1
as §2, with “The cells are subsequently challenged with EMCV or Sendai virus (0.1 or 0.01 TCID per cell).” left out, “The IFN titer is defined as the reciprocal of the highest dilution of culture supernatants capable of protecting 50% of the cells from viral-induced cytopathic effects.” left out

[3] = test system: U937-PKR+ cells; test: Trypan blue exclusion viability assay following induction
Excerpt: Following induction by poly r(I):poly r(C), the U937-PKR+ cells were examined for viability using a trypan blue exclusion assay. […] Thus, the U937-PKR+ cells can be recycled for continuous production of IFN.

Compound | IFN production ([1]; PMA priming alone, no EMCV or poly r(I):poly r(C) inducer, compared with U937-neo cells) | IFN-α synthesis [2] | IFN production ([1]; inducer 10 μg/ml for 20 hr, with or without 10 nM PMA priming) | IFN level ([1]; with 10 nM PMA priming 20 hr, then induction) | viable cells [3]
CCCCCCCCCCCCCC(=O)O[C@@H]1[C@@H](C)[C@@]2(O)[C@@H](C=C(CO)C[C@]3(O)C(=O)C(C)=C[C@@H]23)[C@@H]2C(C)(C)[C@]12OC(C)=O [PMA, phorbol myristate acetate] | higher levels of IFNs than did U937-neo cells |  |  |  | 
poly r(I):poly r(C) |  | minimal synthesis of IFN-α | increased IFN production | 4000 U/ml | more than 95%

From patent US6855519B2, “Methods for enhancing the production of interferon in cell culture” (The Regents of the University of California, priority 1995, dated 2005)
